According to patent US11311593B2, “Root extracts from plants of the Morus genus and uses of same” (PLANT ADVANCED TECHNOLOGIES PAT, priority 2017, dated 2022):

Key:
[1] = system: collagenase obtained from Clostridium Histolyticum; assay: Target Binding affinity test for collagenase; details: ligands in non-stimulated M. alba root extract; moracenin B = reference ligand
Procedure: A root extract of Morus alba was prepared in accordance with the protocol described in Example 2.1. The Target Binding® method used was that of Example 2.3 which is described in patent application FR 1 670 545. The experimental protocol was as follows:
The target, a 6.25 mg/mL solution of collagenase obtained from Clostridium histolyticum, was prepared by dissolving lyophilized enzyme powder in 50 mM saline phosphate buffer with a pH of 7.5. The sample to be analyzed corresponded to the supernatant of the root extract obtained in accordance with Example 2.1. It could be centrifuged once again before use, at 21000 g for 15 min, in order to remove any traces of solid particles. A reference sample was also prepared by diluting the sample to be analyzed 10-fold in a solution of water and a quarter of the volume of acetonitrile.
1. Preconditioning step—Wells with a filtering membrane were preconditioned with a volume of 500 μL of a saline phosphate buffer which was passed through the membrane by centrifuging at 14000 g for 60 seconds.
2. Binding step—A volume of 92.5 μL of the solution obtained from the pretreatment step was mixed with 7.5 μL of the sample to be analyzed for 10 min in a plastic Eppendorf tube.
3. Washing step—The mixture of the enzyme and the sample to be analyzed was deposited in a well that had been preconditioned in the preconditioning step, then centrifuged at 14000 g until most of the solvent had been eliminated. The enzyme-ligand complexes remained on the surface of the filter membrane, then were re-suspended in a volume of 100 μL of the same saline phosphate buffer solution and centrifuged at 14000 g until the solvent had been eliminated. This procedure was repeated three times and eliminated all of the compounds that were not bound to the enzyme. 4. Separation step—The enzyme-ligand complexes retained in the filter were re-suspended in a volume of 10 μL of ultra-pure water then mixed with a volume of 30 μL of acetonitrile in order to denature and precipitate the enzyme and, at the same time, to liberate the ligands. The mixture was centrifuged at 21000 g for 10 min in order to separate the precipitate from the supernatant. 5. Analysis step—Said supernatant was analyzed by liquid phase chromatography coupled to a mass spectrometer. The reference sample was also analyzed in the same manner, using the same analytical conditions.
(§1) The UPLC-MS analysis was carried out in accordance with the protocol described in Example 1.

[2] = system: hyaluronidase; assay: Target Binding affinity test for hyaluronidase; details: ligands in non-stimulated M. alba root extract; moracenin B = reference ligand
Procedure: A root extract of Morus Alba was prepared in accordance with the protocol described in Example 2.1. The Target Binding® method used was that of Example 2.3 which is described in patent application FR 1 670 545. The experimental protocol was as follows: The target, a 5 mg/mL solution of hyaluronidase, was prepared by dissolving powdered lyophilized enzyme in 50 mM sodium phosphate, with a pH of 7.0. The extract corresponded to the supernatant obtained in accordance with Example 2.1. It could optionally be centrifuged once again before use, at 21000 g for 15 min, in order to eliminate the solid particles before use. A reference sample was also prepared by diluting the sample 10-fold in a solution of water and a quarter of the volume of acetonitrile.
1. Preconditioning step—Wells with a filtering membrane were preconditioned with a volume of 500 μL of a solution of 50 mM sodium phosphate, at a pH of 7.0 which was passed through the membrane by centrifuging at 14000 g for 60 seconds.
2. Binding step—The hyaluronidase preparation (5 mg/mL) was mixed with 7.5 μL of the root extract for 5 min in a plastic Eppendorf tube.
3. Washing step—the mixture of the enzyme and the root extract was deposited in a well that had been preconditioned in the preconditioning step, then centrifuged at 14000 g until most of the solvent had been eliminated. The enzyme-ligand complexes remained on the surface of the membrane of the filter then were re-suspended in a volume of 100 μL of the same solution of 50 mM sodium phosphate at a pH of 7.0, and centrifuged at 14000 g until the solvent had been eliminated. This procedure was repeated three times and eliminated all of the compounds that were not bound to the enzyme. 4. Separation step—The enzyme-ligand complexes retained in the filter were re-suspended in a volume of 10 μL of ultra-pure water then mixed with a volume of 40 μL of acetonitrile in order to denature and precipitate the enzyme and at the same time to liberate the ligands. The mixture was centrifuged at 21000 g for 10 min in order to separate the precipitate from the supernatant. 5. Analysis step—Said supernatant was analyzed by liquid phase chromatography coupled to a mass spectrometer, also known by the acronym UPLC-MS. The reference sample was also analyzed in the same manner, using the same analytical conditions.
as §1

| SMILES | Relative affinity (RA) for collagenase [1] | Relative affinity (RA) for hyaluronidase [2] |
| --- | --- | --- |
| CC(C)=CCc1c(O)ccc(C(=O)[C@@H]2CC(C)=C[C@H](c3c(O)cc(O)c4c(=O)c(CC=C(C)C)c(-c5ccc(O)cc5O)oc34)[C@H]2c2ccc(O)cc2O)c1O [Moracenin A, moracenin A] | 1.1 | 1.9 |
| CC(C)=CCc1c(-c2ccc(O)cc2O)oc2c([C@H]3C=C(C)C[C@H](C(=O)c4ccc(O)cc4O)[C@@H]3c3ccc(O)cc3O)c(O)cc(O)c2c1=O [Moracenin B, moracenin B] | 1.0 | 1.0 |
| CC(C)=CCc1c(O)ccc(C(=O)C2C(c3ccc(O)cc3O)CC3(C)CC2c2c(O)cc(-c4cc5ccc(O)cc5o4)cc2O3)c1O (stereo not drawn) [Wittiorumin F, wittiorumin F] | 1.1 | 2.1 |
